Assay results taken from US10239887B2, “Positive allosteric modulators of the muscarinic acetylcholine receptor M4” (Vanderbilt University, priority 2016, dated 2019).

What was measured:
Human M2 = target: T1, Human M2 (Homo sapiens, UniProt P08172); assay: analogous cell-based functional assay using human M2
T1 sequence (P08172 1-466): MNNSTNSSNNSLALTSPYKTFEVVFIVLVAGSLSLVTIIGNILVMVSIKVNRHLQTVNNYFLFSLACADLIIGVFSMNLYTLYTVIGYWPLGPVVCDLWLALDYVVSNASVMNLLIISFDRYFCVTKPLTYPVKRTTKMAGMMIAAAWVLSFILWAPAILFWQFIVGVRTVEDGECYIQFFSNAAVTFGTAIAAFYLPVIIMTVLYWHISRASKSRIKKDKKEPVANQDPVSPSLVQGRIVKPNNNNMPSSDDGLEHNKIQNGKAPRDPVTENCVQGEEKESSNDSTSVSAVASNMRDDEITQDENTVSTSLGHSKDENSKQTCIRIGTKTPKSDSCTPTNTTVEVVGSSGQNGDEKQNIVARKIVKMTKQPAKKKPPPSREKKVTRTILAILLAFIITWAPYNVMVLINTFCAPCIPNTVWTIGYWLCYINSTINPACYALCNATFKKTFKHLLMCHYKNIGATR

[1] = system: amphetamine-induced hyperlocomotion; assay: amphetamine-induced hyperlocomotion in rats; format: in vivo, male Sprague-Dawley rats; details: for percent reversal of amphetamine-induced hyperlocomotion: rat, 1 mg/kg amphetamine s.c.
Method: d-Amphetamine hemisulfate was obtained from Sigma (St. Louis, Mo.). Salt-correction was used to determine the correct amount of the d-amphetamine hemisulfate form in milligrams to add to sterile water in order to yield a […] solution, which would be dosed at 1 mL/kg body weight of each animal. […] The solutions were formulated so that animals were injected with a volume equal to 10 mL/kg body weight for all compounds. The appropriate amount according to the dosage was mixed in 10% Tween 80 (Sigma) in sterile water. The mixtures were then vortexed and stored in a 39° C. sonication bath for 1 hour, until in a microsuspension (except for the highest dose, which was a suspension).
Male Sprague-Dawley rats weighing 239-300 grams and averaging 265 g (Harlan, Inc., Indianapolis, Ind.) were used. They were housed in the animal care facility certified by the American Association for the Accreditation of Laboratory Animal Care (AALAC) under a 12-hour light/dark cycle (lights on: 6 a.m.; lights off: 6 p.m.) and had free access to food and water. The animals used in this experiment were food-deprived the evening before experimentation for oral dosing of compound/vehicle. The experimental protocols performed during the light cycle were approved by the Institutional Animals Care and Use Committee of Vanderbilt University and conformed to the guidelines established by the National Research Council Guide for the Care and Use of Laboratory Animals.
Male Harlan Sprague Dawley rats were habituated in Smart Open Field locomotor activity test chambers (Hamilton-Kinder, San Diego, Calif.) with 16×16 photo beams to automatically record locomotor activity. […] They were monitored for an additional 30 minutes and then injected subcutaneously with vehicle or 1 mg/kg amphetamine. Animals were then monitored for an additional 60 minutes, for a total of 120 minutes. Data were expressed as changes in ambulation defined as total number of beam breaks per 5 minute interval. Terminal brain and plasma samples were collected at the end of the study for pharmacokinetic analysis.
Behavioral data were analyzed using a two-way ANOVA with main effects of treatment and time. Post hoc analysis was performed using a Dunnett's t-test with all treatment groups compared to the VAMP group using GraphPad Prism V.5.04 (GraphPad Software, San Diego, Calif.). Data were graphed using GraphPad Prism V.5.04 (GraphPad Software, San Diego, Calif.). A probability of p<0.05 was taken as the level of statistical significance. In addition, the total number of beam breaks from the amphetamine administration (65 min) to the end of the study (120 min) was calculated and graphed. Percent Reversal was calculated as follows using Microsoft Excel: In each animal, total ambulation from t=65 to t=120 was summed. The mean of each sum was calculated in the VAMP group. Then, for each animal, Percent Reversal was calculated with the following formula: Percent Reversal=100−{[(total ambulation in each animal from t=65 to t=120)/(mean of each sum from t=65 to t=120 in VAMP group)]*100}. The mean Percent Reversal, as well as the standard error, was calculated for each dose group using GraphPad Prism V5.04.

[2] = system: 68 primary molecular targets; assay: Eurofins LeadProfilingScreen (binding); details: 10 μM (binding); all targets except human adenosine A2a
intrinsic clearance, dog = format: in vitro ADME
Method: (§1) Compound 76 was in several in vitro assays to investigate both metabolism and pharmacokinetics. These assays were performed according to known methods as generally described in the following references: Conde-Ceide et al. ACS Med. Chem. Lett. 2015, 6, 716-720; Morris et al. J. Med. Chem. 2014, 57, 10192-10197; and Bubser et al. ACS Chem. Neurosci. 2014, 5, 920-942.

[3] = intrinsic clearance, human; format: in vitro ADME
Method: as §1

P450 3A4 = P450 3A4 (Homo sapiens, UniProt P08684); assay: P450 3A4 inhibition; format: in vitro ADME
P450 3A4, sequence (P08684 whole entry): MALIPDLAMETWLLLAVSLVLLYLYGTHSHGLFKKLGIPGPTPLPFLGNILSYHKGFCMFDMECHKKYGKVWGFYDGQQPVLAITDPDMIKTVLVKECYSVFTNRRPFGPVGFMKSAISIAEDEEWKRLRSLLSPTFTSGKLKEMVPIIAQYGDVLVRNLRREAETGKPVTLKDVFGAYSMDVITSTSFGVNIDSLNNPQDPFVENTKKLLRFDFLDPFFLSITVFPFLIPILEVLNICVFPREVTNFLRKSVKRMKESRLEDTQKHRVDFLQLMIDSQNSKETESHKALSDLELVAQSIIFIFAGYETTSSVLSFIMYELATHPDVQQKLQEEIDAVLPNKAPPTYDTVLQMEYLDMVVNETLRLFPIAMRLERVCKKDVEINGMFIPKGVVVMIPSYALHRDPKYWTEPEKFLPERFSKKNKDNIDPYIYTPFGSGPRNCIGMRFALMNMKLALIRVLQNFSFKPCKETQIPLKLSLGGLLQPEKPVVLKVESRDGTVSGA
Method: as §1

in vivo = details: cynomolgus monkey
in vivo DMPK, rat = details: 3 mg/kg
[4] = system: four strains of Salmonella; assay: Eurofins Ames Test; details: 5-100 μM

Which Emax (Human M2; Human M2) does the source give for `Cc1nnc2sc3c(NCc4ccc(C(C)(C)O)cc4)ncnc3c2c1C` [Compound 76, 2-[4-[[(3,4-Dimethylpyrimido[4′,5′:4,5]thieno[2,3-c]pyridazin-8-yl)amino]methyl]phenyl]propan-2-ol] here?
The Emax was 48%.

And the EC50 (Human M2; analogous assay using human M2)?
The EC50 was 2.8 µM.

And the “percent reversal of amphetamine-induced hyperlocomotion” value (“percent reversal” below) ([1]; 0.1 mg/kg p.o.)?
Its value is 8.1%.

What about the “percent reversal” value ([1]; 0.3 mg/kg p.o.) of the same molecule?
The value was 32.8%.

What about the “percent reversal” value ([1]; 1 mg/kg p.o.) of the same molecule?
Its value is 50.7%.

What about the “percent reversal” value ([1]; 3 mg/kg p.o.) of the same molecule?
The value was 44.3%.

What about the “percent reversal” value ([1]; 10 mg/kg p.o.) of the same molecule?
Its value is 62.8%.

What about the “percent reversal” value ([1]; […] p.o.) of the same molecule?
Its value is 25.6%.

What about the “reversal of amphetamine-induced hyperlocomotion (in words)” value ([1]; systemic administration, similar extent as VU0467154 at 10 mg/kg p.o.) of the same molecule?
Its value is “significant and sustained reversal”.

What about the “inhibition of each target in the LeadProfilingScreen” value [2] of the same molecule?
The value was less than 50%.

What about the CLint scaled (intrinsic clearance, dog) of the same molecule?
Its CLint scaled is 35 mL/min/kg.

What about the CLint scaled [3] of the same molecule?
Its CLint scaled is 15 mL/min/kg.

And the IC50 (P450 3A4)?
The IC50 was 24 µM.

What about the Kp (in vivo; brain) of the same molecule?
The Kp was 0.37.

What about the Kp uu (in vivo; brain) of the same molecule?
Its Kp uu is 0.62.

What about the Vd (in vivo; plasma) of the same molecule?
The Vd was 0.9 L/kg.

And the clearance (in vivo; plasma)?
Its clearance is 5.3 mL/min/kg.

What about the half-life (in vivo; plasma) of the same molecule?
The half-life was 4.5 h.

What about the “Rat oral F” value (in vivo DMPK, rat) of the same molecule?
The value was greater than 100%.

What about the Ames test result [4] of the same molecule?
Its Ames test result is “clean”.
